In patent US20230010886A1 (SUZHOU PUHE BIOPHARMA CO., LTD., priority 2019, published 2023) one finds IC50 data, which are given here for 27 compounds.

This experiment addresses T1, Full length SHP2 enzyme (Homo sapiens, UniProt Q06124).
T1 construct: Full length SHP2 enzyme (diluted to 0.1 nM in reaction buffer)
T1 sequence (Q06124 1-593): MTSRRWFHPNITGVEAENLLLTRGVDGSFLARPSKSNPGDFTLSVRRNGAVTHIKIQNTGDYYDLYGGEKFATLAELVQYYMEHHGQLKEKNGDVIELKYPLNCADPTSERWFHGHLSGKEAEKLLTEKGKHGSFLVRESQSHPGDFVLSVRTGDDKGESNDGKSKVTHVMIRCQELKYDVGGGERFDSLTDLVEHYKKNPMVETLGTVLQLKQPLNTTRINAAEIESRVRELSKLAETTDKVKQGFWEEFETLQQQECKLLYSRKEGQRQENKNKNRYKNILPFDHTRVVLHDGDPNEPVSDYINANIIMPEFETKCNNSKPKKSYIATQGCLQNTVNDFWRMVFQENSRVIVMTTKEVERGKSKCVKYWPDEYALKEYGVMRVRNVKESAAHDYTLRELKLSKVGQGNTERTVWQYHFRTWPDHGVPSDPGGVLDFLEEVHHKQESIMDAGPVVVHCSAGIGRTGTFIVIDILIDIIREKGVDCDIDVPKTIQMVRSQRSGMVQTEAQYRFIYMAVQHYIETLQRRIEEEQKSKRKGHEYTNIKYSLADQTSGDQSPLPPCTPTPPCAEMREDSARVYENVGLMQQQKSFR
Kind of experiment: SHP2 phosphatase assay. Format: biochemical. The conditions noted are these: 1 μM IRS-1 peptide, DiFMUP substrate. On the procedure:
IC50 values were determined at room temperature in 384-well black polystyrene plate, using a final reaction volume of 15 μL and the following assay buffer conditions: 60 mM Hepes (pH=7.2), 75 mM NaCl, 75 mM KCl, and 1 mM EDTA, 0.05% P-20, 5 mM dithiothreitol (DTT). Full length SHP2 enzyme (diluted to 0.1 nM in reaction buffer) were co-incubated with 1 μM IRS-1 peptide and 0.01 nM to 10 μM compounds of the disclosure for 60 min. The surrogate substrate DiFMUP (5 μL, 100 μM) was added, and incubated at rt for 60 min. The reaction was then quenched by the addition of 5 μL of a 40 μM solution of bpV(Phen). The fluorescence signal was monitored using a microplate reader (Envision, Perkin-Elmer) using excitation and emission wavelengths of 360 nm and 450 nm, respectively. The inhibitor dose-response curves were analyzed using normalized IC50 regression curve fitting with control-based normalization.
The IC50 is the concentration at which inhibition is half-maximal. Lower therefore signals higher potency. In turn, `NC1C2CC2CC12CCN(c1ncc(Sc3cccc(Cl)c3Cl)[nH]c1=O)CC2` (stereo not drawn) [Example 13, 3-(2-aminospiro[bicyclo[3.1.0]hexane-3,4′-piperidin]-1′-yl)-6-((2,3-dichlorophenyl)thio)pyrazin-2 (1H)-one] returned an IC50 of at most 0.05 µM. On to `CN1C(=O)C(C(=O)Nc2cccc(Sc3cnc(N4CCC(C)(CN)CC4)c(=O)[nH]3)c2Cl)=C(O)C1(C)C` [Example 28, N-(3-((5-(4-(aminomethyl)-4-methylpiperidin-1-yl)-6-oxo-1,6-dihydropyrazin-2-yl)thio)-2-chlorophenyl)-4-hydroxy-1,5,5-trimethyl-2-oxo-2,5-dihydro-1H-pyrrole-3-carboxamide], for which the half-inhibitory concentration (IC50) is at most 0.05 µM. The figure for `CC1(CN)CCN(c2ncc(Sc3cccc(NC(=O)c4c(O)nc5cnccn5c4=O)c3Cl)[nH]c2=O)CC1` [Example 30, N-(3-((5-(4-(aminomethyl)-4-methylpiperidin-1-yl)-6-oxo-1,6-dihydropyrazin-2-yl)thio)-2-chlorophenyl)-2-hydroxy-4-oxo-4H-pyrazino[1,2-a]pyrimidine-3-carboxamide] is at most 0.05 µM. In turn, `CC1(CN)CCN(c2ncc(Sc3cccc(NC(=O)c4c(O)nc5[nH]ccn5c4=O)c3Cl)[nH]c2=O)CC1` [Example 32, N-(3-((5-(4-(aminomethyl)-4-methylpiperidin-1-yl)-6-oxo-1,6-dihydropyrazin-2-yl)thio)-2-chlorophenyl)-7-hydroxy-5-oxo-1,5-dihydroimidazo[1,2-a]pyrimidine-6-carboxamide] gave an IC50 of at most 0.05 µM. `CC1(CN)CCN(c2ncc(Sc3cccc(NC(=O)c4c(O)nc5n(c4=O)CCCC5)c3Cl)[nH]c2=O)CC1` [Example 33, N-(3-((5-(4-(aminomethyl)-4-methylpiperidin-1-yl)-6-oxo-1,6-dihydropyrazin-2-yl)thio)-2-chlorophenyl)-2-hydroxy-4-oxo-6,7,8,9-tetrahydro-4H-pyrido [1,2-a]pyrimidine-3-carboxamide]: the IC50 is at most 0.05 µM. Next, `CC1(CN)CCN(c2nc3[nH]nc(Nc4cccc(Cl)c4Cl)c3c(=O)[nH]2)CC1` [Example 34, 6-(4-(aminomethyl)-4-methylpiperidin-1-yl)-3-((2,3-dichlorophenyl)amino)-1,5-dihydro-4H-pyrazolo[3,4-d]pyrimidin-4-one]: at most 0.05 µM; `CC1(CN)CCN(c2nc3[nH]nc(Oc4cccc(Cl)c4Cl)c3c(=O)[nH]2)CC1` [Example 35, 6-(4-(aminomethyl)-4-methylpiperidin-1-yl)-3-(2,3-dichlorophenoxy)-1,5-dihydro-4H-pyrazolo[3,4-d]pyrimidin-4-one]: at most 0.05 µM; `Cn1c(N2CCC(C)(CN)C2)nc(N)c(Sc2cccc(Cl)c2Cl)c1=O` (stereo not drawn) [Example 52, 6-amino-2-(3-(aminomethyl)-3-methylpyrrolidin-1-yl)-5-((2,3-dichlorophenyl)thio)-3-methylpyrimidin-4(3H)-one]: at most 0.05 µM. The compound `NC1CCCC(n2ccc(-c3cccc(Cl)c3Cl)cc2=O)C1` (stereo not drawn) [Example 74, 1-(3-aminocyclohexyl)-4-(2,3-dichlorophenyl)pyridin-2(1H)-one] displayed an IC50 of at most 0.05 µM. The figure for `C[C@@H]1OCC2(CCN(c3ncc(Sc4ccnc(N)c4Cl)nc3O)CC2)[C@@H]1N` [Example 77, 6-((2-amino-3-chloropyridin-4-yl)thio)-3-((3S,4S)-4-amino-3-methyl-2-oxa-8-azaspiro[4.5]decan-8-yl)pyrazin-2(1H)-one] is at most 0.05 µM; for `COc1cccc(Sc2cnc(N3CCC4(CC3)CO[C@@H](C)[C@H]4N)c(=O)[nH]2)c1Cl` [Example 79, 3-((3S,4S)-4-amino-3-methyl-2-oxa-8-azaspiro[4.5]decan-8-yl)-6-((2-chloro-3-methoxyphenyl)thio)pyrazin-2 (1H)-one] it is at most 0.05 µM; for `COc1nccc(Sc2cnc(N3CCC4(CC3)CO[C@@H](C)[C@H]4N)c(=O)[nH]2)c1Cl` [Example 80, 3-((3S,4S)-4-amino-3-methyl-2-oxa-8-azaspiro[4.5]decan-8-yl)-6-((3-chloro-2-methoxypyridin-4-yl)thio)pyrazin-2(1H)-one] it is at most 0.05 µM. The figure for `NC1C2CN(c3ncc(Sc4cccc(Cl)c4Cl)[nH]c3=O)CC12` (stereo not drawn) [Example 86, 3-(6-amino-3-azabicyclo[3.1.0]hexan-3-yl)-6-((2,3-dichlorophenyl)thio)pyrazin-2(1H)-one] is at most 0.05 µM; for `N[C@@H]1c2ccccc2OC12CCN(c1ncc(Sc3cccc(Cl)c3Cl)[nH]c1=O)CC2` [Example 87, (R)-3-(3-amino-3H-spiro[benzofuran-2,4′-piperidin]-1′-yl)-6-((2,3-dichlorophenyl)thio)pyrazin-2 (1H)-one] it is at most 0.05 µM. Consider `N[C@@H]1COCC12CCN(c1ncc(Sc3ccnc(Cl)c3Cl)[nH]c1=O)CC2` [Example 88, (S)-3-(4-amino-2-oxa-8-azaspiro[4.5]decan-8-yl)-6-((2,3-dichloropyridin-4-yl)thio)pyrazin-2(1H)-one], for which the 50% inhibitory concentration (IC50) is at most 0.05 µM. The figure for `C[C@@H]1OCC2(CCN(c3ncc(Sc4cc[nH]c(=O)c4Cl)[nH]c3=O)CC2)[C@@H]1N` [Example 107, 3-((3S,4S)-4-amino-3-methyl-2-oxa-8-azaspiro[4.5]decan-8-yl)-6-((3-chloro-2-oxo-1,2-dihydro-pyridin-4-yl)thio)pyrazin-2(1H)-one] is at most 0.05 µM; for `N[C@@H]1c2ccccc2CC12CCN(c1ncc(Sc3cccc(Cl)c3Cl)[nH]c1=O)CC2` [Example 108] it is at most 0.05 µM; for `NC1c2nc(Cl)sc2CC12CCN(c1ncc(Sc3ccnc(Cl)c3Cl)[nH]c1=O)CC2` (stereo not drawn) [Example 116, 3-(4-amino-2-chloro-4,6-dihydrospiro[cyclopenta[d]thiazole-5,4′-piperidin]-1′-yl)-6-((2,3-dichloropyridin-4-yl)thio)pyrazin-2(1H)-one] it is at most 0.05 µM. The figure for `Nc1nccc(Sc2cnc(N3CCC4(CC3)Cc3sc(Cl)nc3C4N)c(=O)[nH]2)c1Cl` (stereo not drawn) [Example 117, 3-(4-amino-2-chloro-4,6-dihydrospiro[cyclopenta[d]thiazole-5,4′-piperidin]-1′-yl)-6-((2-amino-3-chloropyridin-4-yl)thio)pyrazin-2(1H)-one] is at most 0.05 µM; for `N[C@@H]1c2ccccc2OC12CCN(c1ncc(Sc3ccnc(Cl)c3Cl)[nH]c1=O)CC2` [Example 123, (R)-3-(3-amino-3H-spiro[benzofuran-2,4′-piperidin]-1′-yl)-6-((2,3-dichloropyridin-4-yl)thio)pyrazin-2(1H)-one] it is at most 0.05 µM; for `Nc1nccc(Sc2cnc(N3CCC4(CC3)Oc3ccccc3[C@H]4N)c(=O)[nH]2)c1Cl` [Example 124, (R)-6-((2-amino-3-chloropyridin-4-yl)thio)-3-(3-amino-3H-spiro[benzofuran-2,4′-piperidin]-1′-yl)pyrazin-2(1H)-one] it is at most 0.05 µM. The figure for `C[C@@H]1OCC2(CCN(c3ncc(Sc4cccc(N)c4F)[nH]c3=O)CC2)[C@@H]1N` [Example 126, 6-((3-amino-2-fluorophenyl)thio)-3-((3S,4S)-4-amino-3-methyl-2-oxa-8-azaspiro[4.5]decan-8-yl)pyrazin-2(1H)-one] is at most 0.05 µM; for `C[C@@H]1OCC2(CCN(c3ncc(Sc4ccnc(N)c4F)[nH]c3=O)CC2)[C@@H]1N` [Example 127, 6-((2-amino-3-fluoropyridin-4-yl)thio)-3-((3S,4S)-4-amino-3-methyl-2-oxa-8-azaspiro[4.5]decan-8-yl)pyrazin-2(1H)-one] it is at most 1 µM; for `C[C@@H]1OCC2(CCN(c3ncc(Sc4ccncc4Cl)[nH]c3=O)CC2)[C@@H]1N` [Example 128, 3-((3S,4S)-4-amino-3-methyl-2-oxa-8-azaspiro[4.5]decan-8-yl)-6-((3-chloropyridin-4-yl)thio) pyrazin-2(1H)-one] it is at most 0.05 µM. On to `Nc1nccc(Sc2cnc(N3CCC4(CC3)Cc3scnc3C4N)c(=O)[nH]2)c1Cl` (stereo not drawn) [Example 130, 6-((2-amino-3-chloropyridin-4-yl)thio)-3-(4-amino-4,6-dihydrospiro[cyclopenta[d]thiazole-5,4′-piperidin]-1′-yl)pyrazin-2(1H)-one], for which the IC50 is at most 0.05 µM. In turn, `COc1ccc2c(c1)CC1(CCN(c3ncc(Sc4cccc(Cl)c4Cl)[nH]c3=O)CC1)[C@@H]2N` [Example 131, (S)-3-(1-amino-5-methoxy-1,3-dihydrospiro[indene-2,4′-piperidin]-1′-yl)-6-((2,3-dichlorophenyl)thio)pyrazin-2 (1H)-one] came in with an IC50 of at most 0.05 µM. Regarding `N[C@@H]1c2ccccc2NC12CCN(c1ncc(Sc3cccc(Cl)c3Cl)[nH]c1=O)CC2` [Example 132, (R)-3-(3-aminospiro[indoline-2,4′-piperidin]-1′-yl)-6-((2,3-dichlorophenyl)thio)pyrazin-2 (1H)-one], the IC50 was at most 0.05 µM.
